# Source: patent publication US9469650B2, “Melampomagnolide B derivatives” (BOARD OF TRUSTEES OF THE UNIVERSITY OF ARKANSAS, priority 2013, dated 2016)
# Read-outs that look alike come from different tables or passages of the source.
# Experiments:
# ACHN = assay: panel of 60 human tumor cell lines, growth inhibition (Renal Cancer)
# SK-OV-3 = assay: panel of 60 human tumor cell lines, growth inhibition (Ovarian Cancer); details: SK-OV-3
# 786-0 = assay: panel of 60 human tumor cell lines, growth inhibition (Renal Cancer); details: 786-0
# SNB-19 = assay: panel of 60 human tumor cell lines, growth inhibition (CNS Cancer); details: SNB-19
# HOP-62 = assay: panel of 60 human tumor cell lines, growth inhibition (Non-Small Cell Lung Cancer); details: HOP-62
# DU-145 = assay: panel of 60 human tumor cell lines, growth inhibition (Prostate Cancer); details: DU-145
# NCI-H226 = assay: panel of 60 human tumor cell lines, growth inhibition (Non-Small Cell Lung Cancer); details: NCI-H226
# BT-549 = assay: panel of 60 human tumor cell lines, growth inhibition (Breast Cancer); details: BT-549
# HT29 = assay: panel of 60 human tumor cell lines, growth inhibition (Colon Cancer); details: HT29
# IGROV1 = assay: panel of 60 human tumor cell lines, growth inhibition (Ovarian Cancer); details: IGROVI
# NCI-H522 = assay: panel of 60 human tumor cell lines, growth inhibition (Non-Small Cell Lung Cancer); details: NCI-H522
# U251 = assay: panel of 60 human tumor cell lines, growth inhibition (CNS Cancer); details: U251
# NCI-H460 = assay: panel of 60 human tumor cell lines, growth inhibition (Non-Small Cell Lung Cancer); details: NCI-H460
# TK-10 = assay: panel of 60 human tumor cell lines, growth inhibition (Renal Cancer); details: TK-10
# HS 578T = assay: panel of 60 human tumor cell lines, growth inhibition (Breast Cancer); details: HS 578T
# NCI-H23 = assay: panel of 60 human tumor cell lines, growth inhibition (Non-Small Cell Lung Cancer); details: NCI-H23
# SF-295 = assay: panel of 60 human tumor cell lines, growth inhibition (CNS Cancer); details: SF-295
# HCC-2998 = assay: panel of 60 human tumor cell lines, growth inhibition (Colon Cancer); details: HCC-2998
smiles,measurement,setting,value
C=C1C(=O)O[C@H]2[C@H]1CC/C(COC(=O)NCCO)=C\CC[C@@]1(C)O[C@@H]21 [JVM 2-50],Percent Growth,HL-60(TB); Log10 Concentration −4.0,−48%
same,Percent Growth,HL-60(TB); Log10 Concentration −5.0,9%
same,Percent Growth,HL-60(TB); Log10 Concentration −6.0,111%
same,Percent Growth,HL-60(TB); Log10 Concentration −7.0,109%
same,Percent Growth,HL-60(TB); Log10 Concentration −8.0,106%
same,GI50,HL-60(TB); NCI five dose,3.99 µM
same,CC50,"HL-60(TB); read-out: LC50, NCI five dose",> 100 µM
same,Percent Growth,ACHN; Log10 Concentration −4.0,84%
same,Percent Growth,ACHN; Log10 Concentration −5.0,43%
same,Percent Growth,ACHN; Log10 Concentration −6.0,99%
same,Percent Growth,ACHN; Log10 Concentration −7.0,101%
same,Percent Growth,ACHN; Log10 Concentration −8.0,96%
same,GI50,ACHN; NCI five dose,7.44 µM
same,TGI,ACHN; NCI five dose,2.52E−5
same,Percent Growth,SK-OV-3; Log10 Concentration −4.0,23%
same,Percent Growth,SK-OV-3; Log10 Concentration −5.0,106%
same,Percent Growth,SK-OV-3; Log10 Concentration −6.0,103%
same,Percent Growth,SK-OV-3; Log10 Concentration −7.0,103%
same,Percent Growth,SK-OV-3; Log10 Concentration −8.0,92%
same,GI50,SK-OV-3; NCI five dose,47 µM
same,TGI,SK-OV-3; NCI five dose,>1.00E−4
same,Percent Growth,786-0; Log10 Concentration −4.0,−74%
same,Percent Growth,786-0; Log10 Concentration −5.0,59%
same,Percent Growth,786-0; Log10 Concentration −6.0,97%
same,Percent Growth,786-0; Log10 Concentration −7.0,97%
same,Percent Growth,786-0; Log10 Concentration −8.0,91%
same,GI50,786-0; NCI five dose,11.7 µM
same,TGI,786-0; NCI five dose,2.78E−5
same,Percent Growth,SNB-19; Log10 Concentration −4.0,19%
same,Percent Growth,SNB-19; Log10 Concentration −5.0,84%
same,Percent Growth,SNB-19; Log10 Concentration −6.0,95%
same,Percent Growth,SNB-19; Log10 Concentration −7.0,93%
same,Percent Growth,SNB-19; Log10 Concentration −8.0,99%
same,GI50,SNB-19; NCI five dose,32.6 µM
same,TGI,SNB-19; NCI five dose,>1.00E−4
same,Percent Growth,HOP-62; Log10 Concentration −4.0,9%
same,Percent Growth,HOP-62; Log10 Concentration −5.0,88%
same,Percent Growth,HOP-62; Log10 Concentration −6.0,92%
same,Percent Growth,HOP-62; Log10 Concentration −7.0,90%
same,Percent Growth,HOP-62; Log10 Concentration −8.0,88%
same,GI50,HOP-62; NCI five dose,30.4 µM
same,TGI,HOP-62; NCI five dose,>1.00E−4
same,Percent Growth,DU-145; Log10 Concentration −4.0,−92%
same,Percent Growth,DU-145; Log10 Concentration −5.0,60%
same,Percent Growth,DU-145; Log10 Concentration −6.0,107%
same,Percent Growth,DU-145; Log10 Concentration −7.0,106%
same,Percent Growth,DU-145; Log10 Concentration −8.0,108%
same,GI50,DU-145; NCI five dose,11.6 µM
same,TGI,DU-145; NCI five dose,2.47E−5
same,Percent Growth,NCI-H226; Log10 Concentration −4.0,−37%
same,Percent Growth,NCI-H226; Log10 Concentration −5.0,67%
same,Percent Growth,NCI-H226; Log10 Concentration −6.0,91%
same,Percent Growth,NCI-H226; Log10 Concentration −7.0,96%
same,Percent Growth,NCI-H226; Log10 Concentration −8.0,93%
same,GI50,NCI-H226; NCI five dose,14.6 µM
same,TGI,NCI-H226; NCI five dose,4.43E−5
same,Percent Growth,BT-549; Log10 Concentration −4.0,−91%
same,Percent Growth,BT-549; Log10 Concentration −5.0,21%
same,Percent Growth,BT-549; Log10 Concentration −6.0,83%
same,Percent Growth,BT-549; Log10 Concentration −7.0,91%
same,Percent Growth,BT-549; Log10 Concentration −8.0,85%
same,GI50,BT-549; NCI five dose,3.26 µM
same,TGI,BT-549; NCI five dose,1.53E−5
same,Percent Growth,HT29; Log10 Concentration −4.0,−47%
same,Percent Growth,HT29; Log10 Concentration −5.0,57%
same,Percent Growth,HT29; Log10 Concentration −6.0,109%
same,Percent Growth,HT29; Log10 Concentration −7.0,104%
same,Percent Growth,HT29; Log10 Concentration −8.0,99%
same,GI50,HT29; NCI five dose,11.7 µM
same,TGI,HT29; NCI five dose,3.55E−5
same,Percent Growth,IGROV1; Log10 Concentration −4.0,−36%
same,Percent Growth,IGROV1; Log10 Concentration −5.0,49%
same,Percent Growth,IGROV1; Log10 Concentration −6.0,109%
same,Percent Growth,IGROV1; Log10 Concentration −7.0,106%
same,Percent Growth,IGROV1; Log10 Concentration −8.0,95%
same,GI50,IGROV1; NCI five dose,9.79 µM
same,TGI,IGROV1; NCI five dose,1.80E−5
same,Percent Growth,NCI-H522; Log10 Concentration −4.0,−69%
same,Percent Growth,NCI-H522; Log10 Concentration −5.0,−56%
same,Percent Growth,NCI-H522; Log10 Concentration −6.0,97%
same,Percent Growth,NCI-H522; Log10 Concentration −7.0,104%
same,Percent Growth,NCI-H522; Log10 Concentration −8.0,98%
same,GI50,NCI-H522; NCI five dose,2.03 µM
same,TGI,NCI-H522; NCI five dose,4.30E−6
same,Percent Growth,U251; Log10 Concentration −4.0,−26%
same,Percent Growth,U251; Log10 Concentration −5.0,94%
same,Percent Growth,U251; Log10 Concentration −6.0,91%
same,Percent Growth,U251; Log10 Concentration −7.0,95%
same,Percent Growth,U251; Log10 Concentration −8.0,97%
same,GI50,U251; NCI five dose,23.3 µM
same,TGI,U251; NCI five dose,6.08E−5
same,Percent Growth,NCI-H460; Log10 Concentration −4.0,8%
same,Percent Growth,NCI-H460; Log10 Concentration −5.0,98%
same,Percent Growth,NCI-H460; Log10 Concentration −6.0,98%
same,Percent Growth,NCI-H460; Log10 Concentration −7.0,100%
same,Percent Growth,NCI-H460; Log10 Concentration −8.0,100%
same,GI50,NCI-H460; NCI five dose,34 µM
same,TGI,NCI-H460; NCI five dose,>1.00E−4
same,Percent Growth,TK-10; Log10 Concentration −4.0,−91%
same,Percent Growth,TK-10; Log10 Concentration −5.0,55%
same,Percent Growth,TK-10; Log10 Concentration −6.0,110%
same,Percent Growth,TK-10; Log10 Concentration −7.0,103%
same,Percent Growth,TK-10; Log10 Concentration −8.0,100%
same,GI50,TK-10; NCI five dose,10.8 µM
same,Percent Growth,HS 578T; Log10 Concentration −4.0,22%
same,Percent Growth,HS 578T; Log10 Concentration −5.0,82%
same,Percent Growth,HS 578T; Log10 Concentration −6.0,91%
same,Percent Growth,HS 578T; Log10 Concentration −7.0,88%
same,Percent Growth,HS 578T; Log10 Concentration −8.0,92%
same,GI50,HS 578T; NCI five dose,34.3 µM
same,TGI,HS 578T; NCI five dose,>1.00E−4
same,Percent Growth,NCI-H23; Log10 Concentration −4.0,−53%
same,Percent Growth,NCI-H23; Log10 Concentration −5.0,67%
same,Percent Growth,NCI-H23; Log10 Concentration −6.0,100%
same,Percent Growth,NCI-H23; Log10 Concentration −7.0,102%
same,Percent Growth,NCI-H23; Log10 Concentration −8.0,98%
same,GI50,NCI-H23; NCI five dose,13.8 µM
same,TGI,NCI-H23; NCI five dose,3.61E−5
same,Percent Growth,SF-295; Log10 Concentration −4.0,44%
same,Percent Growth,SF-295; Log10 Concentration −5.0,92%
same,Percent Growth,SF-295; Log10 Concentration −6.0,95%
same,Percent Growth,SF-295; Log10 Concentration −7.0,90%
same,Percent Growth,SF-295; Log10 Concentration −8.0,88%
same,GI50,SF-295; NCI five dose,73.7 µM
same,TGI,SF-295; NCI five dose,1.06E−4
same,Percent Growth,HCC-2998; Log10 Concentration −4.0,−70%
same,Percent Growth,HCC-2998; Log10 Concentration −5.0,105%
same,Percent Growth,HCC-2998; Log10 Concentration −6.0,136%
same,Percent Growth,HCC-2998; Log10 Concentration −7.0,106%
same,Percent Growth,HCC-2998; Log10 Concentration −8.0,98%
same,GI50,HCC-2998; NCI five dose,20.6 µM
same,TGI,HCC-2998; NCI five dose,3.99E−5
